Active and inactive are the calls of the source. For most assays here, no stated cut-off is given here; in the data, actives have a measured EC50 and inactives only a lower limit.
Tests used:
[1] = biological target: T1, Heat shock factor protein 1 (Mus musculus, UniProt P38532); experiment: inhibition of MG132-induced HSE-luciferase signal, confirmation, cell-based, NIH3T3, luminescence, dose retest (AID 2382); type: functional;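 further: NIH3T3 fibroblasts with HSF1-driven luciferase reporter stressed by proteasome inhibitor MG132; luminescence from HSF1-driven luciferase expression after 8 hours of MG132 stress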
T1 sequence (P38532 whole entry): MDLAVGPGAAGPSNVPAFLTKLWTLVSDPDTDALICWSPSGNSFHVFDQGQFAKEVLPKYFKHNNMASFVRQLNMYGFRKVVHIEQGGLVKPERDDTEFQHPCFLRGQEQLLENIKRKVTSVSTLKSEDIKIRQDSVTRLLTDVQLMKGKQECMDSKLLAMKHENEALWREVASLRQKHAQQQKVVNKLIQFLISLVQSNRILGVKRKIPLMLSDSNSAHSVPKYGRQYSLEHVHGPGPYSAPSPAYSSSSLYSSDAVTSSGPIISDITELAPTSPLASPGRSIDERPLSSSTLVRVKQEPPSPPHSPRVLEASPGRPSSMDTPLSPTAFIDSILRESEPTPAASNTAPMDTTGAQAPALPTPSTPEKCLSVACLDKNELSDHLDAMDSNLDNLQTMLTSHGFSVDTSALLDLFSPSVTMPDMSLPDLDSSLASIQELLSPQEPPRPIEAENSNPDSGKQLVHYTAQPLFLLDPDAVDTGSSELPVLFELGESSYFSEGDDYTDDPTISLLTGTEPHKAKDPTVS

cells [2] = type: functional, cell-based
cells [3] = type: functional, cell-based; remark: listed apart in the source
Coagulation factor XII = biological target: T2, Coagulation factor XII (Homo sapiens, UniProt P00748); type: functional;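 further: activated factor XIIa alpha cleaving a fluorogenic AMC peptide substrate; inhibitor potency from loss of enzyme activity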
T2 sequence (P00748 whole entry): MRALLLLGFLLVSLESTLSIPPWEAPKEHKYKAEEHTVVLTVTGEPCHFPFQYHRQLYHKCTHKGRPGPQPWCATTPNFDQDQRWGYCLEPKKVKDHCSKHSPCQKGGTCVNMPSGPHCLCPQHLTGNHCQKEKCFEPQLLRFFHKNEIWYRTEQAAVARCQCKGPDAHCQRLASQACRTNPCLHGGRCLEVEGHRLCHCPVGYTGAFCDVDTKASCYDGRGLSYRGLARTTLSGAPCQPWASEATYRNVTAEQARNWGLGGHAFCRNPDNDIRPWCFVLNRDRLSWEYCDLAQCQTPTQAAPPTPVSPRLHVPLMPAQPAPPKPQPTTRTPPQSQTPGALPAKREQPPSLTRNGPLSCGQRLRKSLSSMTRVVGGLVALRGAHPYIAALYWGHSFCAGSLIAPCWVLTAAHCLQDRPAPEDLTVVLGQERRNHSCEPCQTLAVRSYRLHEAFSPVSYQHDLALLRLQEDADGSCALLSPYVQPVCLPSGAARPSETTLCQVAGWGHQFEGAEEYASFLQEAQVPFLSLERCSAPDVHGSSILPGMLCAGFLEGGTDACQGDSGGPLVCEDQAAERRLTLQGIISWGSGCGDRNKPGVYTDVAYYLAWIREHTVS

[4] = biological target: Luciferin 4-monooxygenase (Photinus pyralis, UniProt P08659); experiment: firefly luciferase enzyme inhibitors, dose response, biochemical, luminescence (AID 1891)
Luciferin 4-monooxygenase, sequence (P08659 whole entry): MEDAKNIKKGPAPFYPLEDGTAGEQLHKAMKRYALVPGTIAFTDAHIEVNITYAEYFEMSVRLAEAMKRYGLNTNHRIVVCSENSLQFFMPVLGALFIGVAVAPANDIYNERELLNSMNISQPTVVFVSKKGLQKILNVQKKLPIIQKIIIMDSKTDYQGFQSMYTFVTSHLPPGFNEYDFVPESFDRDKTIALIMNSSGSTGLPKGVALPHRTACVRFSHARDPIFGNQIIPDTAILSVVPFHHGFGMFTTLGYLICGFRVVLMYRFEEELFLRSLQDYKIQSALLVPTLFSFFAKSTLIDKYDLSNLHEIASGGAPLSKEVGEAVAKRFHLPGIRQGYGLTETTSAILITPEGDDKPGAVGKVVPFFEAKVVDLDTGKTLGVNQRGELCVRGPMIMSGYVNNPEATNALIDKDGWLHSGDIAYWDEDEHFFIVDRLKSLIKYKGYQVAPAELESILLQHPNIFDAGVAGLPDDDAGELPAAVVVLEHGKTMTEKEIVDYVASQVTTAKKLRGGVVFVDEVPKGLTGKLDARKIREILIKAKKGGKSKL

[5] = Luminescence Cell-Based Dose Confirmation HTS to Identify Inhibitors of Platelet Dense Granule Release. [Related pubchem assays: 1663 (Primary HTS), 1678 (Summary of Project)]; type: functional
BJ [6] = experiment: cytotoxicity toward BJ-TERT fibroblasts, dose response, cell-based, RAS-independent, luminescence (AID 1933); type: functional; details: Homo sapiens
BJ [7] = experiment: cells; type: functional, cell-based; details: Homo sapiens
BJ [8] = experiment: cytotoxicity toward BJ-TERT-LT-ST fibroblasts, dose response, cell-based, RAS-independent, luminescence (AID 1935); type: functional; details: Homo sapiens;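 further: BJ fibroblasts immortalized with TERT plus LT and ST oncogenes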
[9] = cytotoxicity toward DRD oncogenic fibroblasts, dose response, cell-based, non-viral oncogenic, luminescence (AID 1934); type: functional; details: Homo sapiens

## CCCNS(=O)(=O)c1ccc(OCC(=O)N2CCN(C)CC2)cc1
[1]
  EC50: > 195 µM (not active)

## COc1ccc2nc(NC(=O)Nc3ccccc3OC)sc2c1
Cells [2]
  EC50: > 350 µM (not active)
Cells [3]
  EC50: 4.4 µM (active)

## CCC(/N=c1\cc(-c2ccc(OC)c(OC)c2)oc2ccc(C)cc12)C(=O)O (configuration not stated)
[1]
  EC50: > 195 µM (not active)

## COc1cccc2sc(NC(=O)c3ccc(S(=O)(=O)N4CCOCC4)cc3)nc12
Coagulation factor XII
  IC50: > 50 µM (inactive)

## CCN(Cc1ccccc1)C(=O)CCNS(=O)(=O)c1ccc2c(c1)CC(C)N2C(C)=O (configuration not stated)
Cells [2]
  EC50: > 350 µM (not active)
Cells [3]
  EC50: > 350 µM (not active)

## COc1cc(Cl)c(C)cc1NC(=O)CSC
Coagulation factor XII
  IC50: > 50 µM (inactive)

## CC1=NC(C#N)=C(C#N)NC(C)(C)C1
Cells [2]
  EC50: > 350 µM (not active)
Cells [3]
  EC50: > 350 µM (not active)

## CCCc1nc2sc3c(c2c(=O)n1NC(=O)CCC(=O)OC)CCCC3
[4]
  EC50: > 112 µM (not active)
[5]
  EC50: > 112 µM (not active)

## Cc1nc(-c2ccc(C(=O)Nc3ccccc3F)cc2)cs1
BJ [6]
  EC50: 13.7 µM (active)
BJ [7]
  EC50: 10.8 µM (active)
BJ [8]
  EC50: 19.9 µM (active)
[9]
  EC50: 11 µM (active)

## CN1CCN(c2ccc(CNS(=O)(=O)Cc3ccc(Cl)cc3)cc2)CC1
Coagulation factor XII
  IC50: > 50 µM (inactive)

## Cc1cc(=O)oc(C)c1C(=O)NCCNC(=O)c1c(C)cc(=O)oc1C
[4]
  EC50: > 112 µM (not active)
[5]
  EC50: 28.8 µM (active)

## CN(C(=O)COC(=O)c1cc(O)nc2ccccc12)c1c(N)n(Cc2ccccc2)c(=O)[nH]c1=O
[1]
  EC50: > 195 µM (not active)

## CC(=O)NCCC(=O)Nc1cc(S(=O)(=O)N2CCOCC2)ccc1N1CCOCC1
Cells [2]
  EC50: > 350 µM (not active)
Cells [3]
  EC50: > 350 µM (not active)

From ChEMBL document CHEMBL1201862, “PubChem BioAssay data set” (2004)
